In patent US5114464A, “4-quinoxalinyloxyphenoxyalkylinitrile herbicides” (Uniroyal Chemical Company, Inc., priority 1990, dated 1992):

Assays:
velvet leaf [1] = assay: Preemergence control of velvet leaf (Table I); assay type: in vivo, Abutilon theoohrasti Medic.; details: 11.2 kg/ha, two weeks after treatment
Experimental: (§1) To illustrate the effectiveness of the Compounds 1 and 2 of this invention as preemergence herbicides, 300 mg of each compound were dissolved in 10 ml acetone to which 30 mg of an emulsifying agent, ethoxylated sorbitan monolaurate, were added. The solution was diluted to 100 ml with distilled water. Ten milliliters of the 3000 ppm solution were diluted to 250 ppm with distilled water. The chemical was applied at the rate of 10 lb/A (11.2 kg/ha) by drenching 46 ml of the 250 ppm solution on the surface of soil in 41/2inch (11.25 cm) plastic pots wherein seeds of the following weeds had been planted: velvet leaf (Abutilon theoohrasti Medic.) (VL), prickly sida (sida soinosa L.) (PS), tall morningglory (Ioomea purourea L. Roth) (TM), switchgrass (Panicum viroatum L.) (SG), barnyard grass (Echinolchloa crus-oalli (L.) Beauv.) (BG), and green foxtail (Setaria viridis) (L.) Beauv.) (GF). The percent control of the weeds compared to untreated checks was determined two weeks after treatment.

prickly sida [2] = assay: Preemergence control of prickly sida (Table I); assay type: in vivo, sida soinosa L.; details: 11.2 kg/ha, two weeks after treatment
Experimental: as §1

tall morningglory [3] = assay: Preemergence control of tall morningglory (Table I); assay type: in vivo, Ioomea purourea L. Roth; details: 11.2 kg/ha, two weeks after treatment
Experimental: as §1

barnyard grass [4] = assay: Preemergence control of barnyard grass (Table I); assay type: in vivo, Echinolchloa crus-oalli (L.) Beauv.; details: 11.2 kg/ha, two weeks after treatment
Experimental: as §1

switchgrass [5] = assay: Preemergence control of switchgrass (Table I); assay type: in vivo, Panicum viroatum L.; details: 11.2 kg/ha, two weeks after treatment
Experimental: as §1

green foxtail [6] = assay: Preemergence control of green foxtail (Table I); assay type: in vivo, Setaria viridis (L.) Beauv.; details: 11.2 kg/ha, two weeks after treatment
Experimental: as §1

velvet leaf [7] = assay: Postemergence control of velvet leaf (Table II); assay type: in vivo, Abutilon theoohrasti Medic.; details: 3000 ppm, two weeks after treatment
Experimental: as §1
(§2) To test the effectiveness of Compounds 1 and 2 of this invention as postemergence herbicides, a 3000 ppm solution of each compound (produced in accordance with the process described under Example 3) was atomized employing a DEVILBISS [trademark] sprayer, wetting the foliage to the drip point. […] The percent weed control was evaluated two weeks after treatment.

prickly sida [8] = assay: Postemergence control of prickly sida (Table II); assay type: in vivo, sida soinosa L.; details: 3000 ppm, two weeks after treatment
Experimental: as §1, §2

tall morningglory [9] = assay: Postemergence control of tall morningglory (Table II); assay type: in vivo, Ioomea purourea L. Roth; details: 3000 ppm, two weeks after treatment
Experimental: as §1, §2

barnyard grass [10] = assay: Postemergence control of barnyard grass (Table II); assay type: in vivo, Echinolchloa crus-oalli (L.) Beauv.; details: 3000 ppm, two weeks after treatment
Experimental: as §1, §2

switchgrass [11] = assay: Postemergence control of switchgrass (Table II); assay type: in vivo, Panicum viroatum L.; details: 3000 ppm, two weeks after treatment
Experimental: as §1, §2

green foxtail [12] = assay: Postemergence control of green foxtail (Table II); assay type: in vivo, Setaria viridis (L.) Beauv.; details: 3000 ppm, two weeks after treatment
Experimental: as §1, §2

switchgrass [13] = assay: Postemergence selectivity, greenhouse: switchgrass control (Table III); assay type: in vivo, Panicum viroatum L.; details: 250 ppm, treated May 26, rated Jun. 12
Experimental: as §1
(§3) To illustrate the effectiveness of Compound 1 of this invention as a corn-safe selective postemergence herbicide, the 3000 ppm solution prepared as described in Example 3 was diluted with distilled water to 250 ppm and applied to foliage as described in Example 3. The commercial product Hoelon 3EC® (Hoechst) was included as a standard. […] The percent weed control and crop injury was determined on Jun. […]

barnyard grass [14] = assay: Postemergence selectivity, greenhouse: barnyard grass control (Table III); assay type: in vivo, Echinolchloa crus-oalli (L.) Beauv.; details: 250 ppm, treated May 26, rated Jun. 12
Experimental: as §1, §3

green foxtail [15] = assay: Postemergence selectivity, greenhouse: green foxtail control (Table III); assay type: in vivo, Setaria viridis (L.) Beauv.; details: 250 ppm, treated May 26, rated Jun. 12
Experimental: as §1, §3

corn = assay: Postemergence selectivity, greenhouse: corn injury (Table III); assay type: in vivo; details: 250 ppm
Experimental: as §1, §3

soybean = assay: Postemergence selectivity, greenhouse: soybean injury (Table III); assay type: in vivo; details: 250 ppm, treated May 26, rated Jun. 12
Experimental: as §1, §3

cotton = assay: Postemergence selectivity, greenhouse: cotton injury (Table III); assay type: in vivo; details: 250 ppm, treated May 26, rated Jun. 12
Experimental: as §1, §3

Giant foxtail = assay: Postemergence selectivity, field test: Giant foxtail control (Table IV); assay type: in vivo; details: 33 days after treatment
Experimental: (§4) To further illustrate the effectiveness of Compound 1 of this invention as a corn-safe selective postemergence herbicide, field tests were run in which five corn hybrids (designated C9979, C6114, C8004 and C1914 by the Independent Professional Seedsmans Association, and Pioneer 3295) along with two grass weeds (Giant foxtail, "GF"; and Barnyard grass, "BG") were planted in an Illinois field on April 24. The crops were treated with various amounts of Compound 1 in early Jun., and the amount of crop control was evaluated 33 days after treatment compared to an untreated control. The active ingredient was formulated as follows: […]
(§5) That produces a formulation containing 10% active ingredient by weight. The required amount of formulation to produce the indicated rate per acre is added to water, mixed with one quart of an adjuvant containing 83% mineral oil and 17% emulsifiers, then brought up to a total spray volume of 20 gallons per acre with water.

Barnyard grass [16] = assay: Postemergence selectivity, field test: Barnyard grass control (Table IV); assay type: in vivo; details: 33 days after treatment
Experimental: as §4, §5

corn hybrids = assay: Postemergence selectivity, field test: corn hybrids (Table IV); assay type: in vivo; details: for Percent corn crop control (injury): 33 days
Experimental: as §4, §5

weeds [17] = assay: Preemergence control, summary statement; assay type: in vivo; details: 11.2 kg/ha
Experimental: as §1

weeds [18] = assay: Postemergence control, summary statement; assay type: in vivo; details: 3000 ppm
Experimental: as §1, §2

grass weeds [19] = assay: Postemergence selectivity greenhouse (Example 5), summary for grass weeds; assay type: in vivo; details: 250 ppm
Experimental: as §1, §3

grass weeds [20] = assay: Postemergence selectivity field test (Example 6), summary for grass weeds; assay type: in vivo; details: 0.125 to 0.50 lb/a
Experimental: as §4, §5

N#CCOc1ccc(Oc2cnc3cc(Cl)ccc3n2)cc1 [Compound 1, 2-[4-(6-chloro-2-quinoxalinyloxy)phenoxy]acetonitrile]
% Control VL (velvet leaf [1]): 0%
% Control PS (prickly sida [2]): 0%
% Control TM (tall morningglory [3]): 0%
% Control BG (barnyard grass [4]): 100%
% Control SG (switchgrass [5]): 50%
% Control GF (green foxtail [6]): 90%
% Control VL (velvet leaf [7]): 0%
% Control PS (prickly sida [8]): 0%
% Control TM (tall morningglory [9]): 0%
% Control BG (barnyard grass [10]): 100%
% Control SG (switchgrass [11]): 100%
% Control GF (green foxtail [12]): 9%
Percent weed control SG (switchgrass [13]): 100%
Percent Weed Control BG (barnyard grass [14]): 100%
Percent Weed Control GF (green foxtail [15]): 90%
corn safety (corn): substantially innocuous to corn
Percent crop injury CORN (corn; treated May 26, rated Jun. 12): 0%
Percent crop injury SOYBEAN (soybean): 0%
Percent crop injury COTTON (cotton): 0%
Percent Weed Control GF (Giant foxtail; 0.125 lb/a): 99.3%
Percent Weed Control GF (Giant foxtail; 0.25 lb/a): 100%
Percent Weed Control GF (Giant foxtail; 0.50 lb/a): 100%
Percent Weed Control BG (Barnyard grass [16]; 0.125 lb/a): 30.0%
Percent Weed Control BG (Barnyard grass [16]; 0.25 lb/a): 43.3%
Percent Weed Control BG (Barnyard grass [16]; 0.50 lb/a): 90.0%
corn safety (corn hybrids; 0.125 to 0.50 lb/a): substantially innocuous to corn
Percent corn crop control (injury) (corn hybrids; corn hybrid C1914, 0.125 lb/a): 0%
Percent corn crop control (injury) (corn hybrids; corn hybrid C1914, 0.25 lb/a): 0%
Percent corn crop control (injury) (corn hybrids; corn hybrid C1914, 0.50 lb/a): 0%
Percent corn crop control (injury) (corn hybrids; corn hybrid C6114, 0.125 lb/a): 0%
Percent corn crop control (injury) (corn hybrids; corn hybrid C6114, 0.25 lb/a): 0%
Percent corn crop control (injury) (corn hybrids; corn hybrid C6114, 0.50 lb/a): 0%
Percent corn crop control (injury) (corn hybrids; corn hybrid C8004, 0.125 lb/a): 0%
Percent corn crop control (injury) (corn hybrids; corn hybrid C8004, 0.25 lb/a): 0%
Percent corn crop control (injury) (corn hybrids; corn hybrid C8004, 0.50 lb/a): 0%
Percent corn crop control (injury) (corn hybrids; corn hybrid C9979, 0.125 lb/a): 0%
Percent corn crop control (injury) (corn hybrids; corn hybrid C9979, 0.25 lb/a): 0%
Percent corn crop control (injury) (corn hybrids; corn hybrid C9979, 0.50 lb/a): 0%
Percent corn crop control (injury) (corn hybrids; corn hybrid Pioneer 3295, 0.125 lb/a): 0%
Percent corn crop control (injury) (corn hybrids; corn hybrid Pioneer 3295, 0.25 lb/a): 0%
Percent corn crop control (injury) (corn hybrids; corn hybrid Pioneer 3295, 0.50 lb/a): 0%
herbicidal efficacy (weeds [17]): good to excellent herbicidal efficacy
postemergent herbicidal control (weeds [18]): desirable postemergent herbicidal control
control of several grass weeds (grass weeds [19]): good control of several grass weeds
control of several grass weeds (grass weeds [20]): good control of several grass weeds
